# Assay results reported in patent US20230146507A1, “N-PHENYL-3-MERCAPTOPROPANAMIDE DERIVATIVES AS METALLO-BETA-LACTAMASE INHIBITORS FOR THE TREATMENT OF BACTERIAL INFECTIONS” (Helmholtz-Zentrum Für Infektionsforschung GmbH, priority 2020, published 2023).
# Assays:
# IMP-7 = IMP-7 (Pseudomonas aeruginosa, UniProt Q93AU3); experiment: In vitro inhibition assay (kinetic fluorescence-based activity assay), IMP-7; type: biochemical; conditions: Means and SD of at least two independent experiments
# Protocol: (§1) Protein expression and purification. The expression of IMP-7, VIM-1, and NDM-1 was performed according to the protocol previously published by Klingler et al. (Klingler, F. M.; Wichelhaus, T. A.; Frank, D.; Cuesta-Bernal, J.; El-Delik, J.; Müller, H. F.; Sjuts, H.; Gottig, S.; Koenigs, A.; Pos, K. M.; et al. Approved Drugs Containing Thiols as Inhibitors of Metallo-β-Lactamases: Strategy to Combat Multidrug-Resistant Bacteria. J. Med. Chem. 2015, 58 (8), 3626-3630. https://doi.org/10.1021/jm501844d) with slight modifications.
# (§2) In vitro inhibition assay. Activity assays for NDM-1, VIM-1, VIM-2 and IMP-7 were carried out, as described by Klingler et al. Final protein concentrations were 0.5 nM (NDM-1), 4.0 nM (VIM-1), and 0.1 nM (IMP-7) in a 50 mM HEPES buffer (pH 7.5, 0.01% Triton X-100) Substrate (Fluorocillin™ (Invitrogen, Darmstadt, Germany) was dissolved in assay buffer to a final concentration of 888 nM. Test compounds were dissolved and pre-diluted in DMSO (final concentration: 1%). In a black polystyrol 96-well plate (Corning) an amount of […] of the respective inhibitor solution at different concentrations was incubated with […] of respective protein containing buffer for 30 minutes at room temperature. […] of substrate solution was added. The readout of the emitted fluorescence was started immediately (45 s for 30 cycles) using a Tecan Infinite F200Pro (Tecan Group Ltd; excitation at 495 nm and emission at 525 nm). Blank controls were performed without enzyme. Positive controls were performed with enzyme but without inhibitor. The inhibitory activity of each test compound was measured in three independent experiments. For calculation of IC50 values, data obtained from measurements with eight different inhibitor concentrations were used. For the evaluation of the sigmoidal dose response equation (variable slope with four parameters) GraphPad Prism 5 (GraphPad Software, La Jolla, Calif., USA) was used.
# NDM-1 = biological target: T1, NDM-1 (Klebsiella pneumoniae, UniProt C7C422); experiment: In vitro inhibition assay (kinetic fluorescence-based activity assay), NDM-1; type: biochemical; conditions: Means and SD of at least two independent experiments
# T1 construct: made in house
# T1 sequence (C7C422 29-270, looked up, species assumed): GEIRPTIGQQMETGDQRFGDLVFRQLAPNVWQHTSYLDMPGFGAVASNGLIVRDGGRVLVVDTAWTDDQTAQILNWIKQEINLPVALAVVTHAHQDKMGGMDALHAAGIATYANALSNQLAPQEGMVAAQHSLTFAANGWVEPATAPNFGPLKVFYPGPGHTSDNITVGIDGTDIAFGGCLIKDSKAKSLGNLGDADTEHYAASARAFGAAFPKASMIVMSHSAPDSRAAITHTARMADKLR
# Protocol: as §1, §2
# VIM-1 = biological target: T2, VIM-1 (Pseudomonas aeruginosa, UniProt A0A0F7KYQ8); experiment: In vitro inhibition assay (kinetic fluorescence-based activity assay), VIM-1; type: biochemical; conditions: Means and SD of at least two independent experiments
# T2 construct: made in house
# Protocol: as §1, §2
# E. coli VIM-1 (T2544) = experiment: Checkerboard assay with imipenem, E. coli VIM-1 (T2544); type: cell-based
# Protocol: (§3) Fractional inhibitory concentration index (FICI). The checkerboard assay was performed to test for synergy in vitro. […] FICIs≤0.5 were defined as synergistic; FICIs from >0.5 to […] were defined as additive; FICIs from 1 to ≤4 were defined as indifferent and FICIs>4 were defined as antagonistic (Doern, C. D. When Does 2 plus 2 Equal 5? A Review of Antimicrobial Synergy Testing. J. Clin. Microbial. 2014, 52 (12), 4124-4128. https://doi.org/10.1128/JCM.01121-14).
# E. coli NDM-1 (T2359) = experiment: Checkerboard assay with imipenem, E. coli NDM-1 (T2359); type: cell-based; conditions: Table 6
# Protocol: as §3
# E. coli IMP-1 (T2360) = experiment: Checkerboard assay with imipenem, E. coli IMP-1 (T2360); type: cell-based
# Protocol: as §3
# [1] = tested on: different isolates from E. coli and P. aeruginosa; experiment: MIC assay, intrinsic antibacterial activity; type: cell-based; conditions: compound alone
# Chain of IMP-7 (Q93AU3 entry or part of it): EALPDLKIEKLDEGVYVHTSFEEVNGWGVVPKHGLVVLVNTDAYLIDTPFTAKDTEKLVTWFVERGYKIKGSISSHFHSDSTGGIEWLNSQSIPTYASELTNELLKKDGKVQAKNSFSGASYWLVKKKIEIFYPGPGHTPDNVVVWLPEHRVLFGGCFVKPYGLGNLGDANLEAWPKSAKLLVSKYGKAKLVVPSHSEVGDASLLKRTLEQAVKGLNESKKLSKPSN
compound,measurement,setting,value
COC(=O)c1ccccc1NC(=O)CCS [HIPS1685],IC50,IMP-7,1 ± 0.1 µM
same,IC50,NDM-1,1.3 ± 0.2 µM
same,IC50 (μM) VIM-1,VIM-1,n.i.
O=C(CCS)Nc1ccc(S(=O)(=O)N2CCOCC2)cc1 [HIPS5659],IC50,IMP-7,7.1 ± 1.4 µM
same,IC50,NDM-1,2.5 ± 0.2 µM
same,IC50,VIM-1,1.7 ± 0.3 µM
O=C(CCS)Nc1cccc(O)c1 [HIPS1687],IC50,IMP-7,1.4 ± 0.2 µM
same,IC50,NDM-1,2.7 ± 0.5 µM
same,IC50,VIM-1,0.1 µM
O=C(CCS)Nc1cccc([N+](=O)[O-])c1 [HIPS5662],IC50,IMP-7,2.6 ± 0.1 µM
same,IC50,NDM-1,2.5 ± 0.2 µM
same,IC50,VIM-1,0.1 µM
O=C(CCS)Nc1ccc(O)cc1 [HIPS5190],IC50,IMP-7,3.4 ± 0.7 µM
same,IC50,NDM-1,4 ± 1.1 µM
same,IC50,VIM-1,0.2 µM
O=C(CCS)Nc1ccc(C(=O)O)cc1 [HIPS5695],Imipenem MIC,E. coli VIM-1 (T2544); +2 mg/L compound,16 µg/mL
same,Imipenem MIC,E. coli VIM-1 (T2544); +4 mg/L compound,16 µg/mL
same,Imipenem MIC,E. coli VIM-1 (T2544); +8 mg/L compound,16 µg/mL
same,Imipenem MIC,E. coli VIM-1 (T2544); +16 mg/L compound,16 µg/mL
same,Imipenem MIC,E. coli VIM-1 (T2544); +32 mg/L compound,4 µg/mL
same,Imipenem MIC,E. coli VIM-1 (T2544); +64 mg/L compound,2 µg/mL
same,Imipenem MIC,E. coli VIM-1 (T2544); +128 mg/L compound,1 µg/mL
same,IC50 (μM) IMP-7,IMP-7,n.i.
same,Imipenem MIC,E. coli NDM-1 (T2359); +2 mg/L compound,128 µg/mL
same,Imipenem MIC,E. coli NDM-1 (T2359); +4 mg/L compound,128 µg/mL
same,Imipenem MIC,E. coli NDM-1 (T2359); +8 mg/L compound,128 µg/mL
same,Imipenem MIC,E. coli NDM-1 (T2359); +16 mg/L compound,128 µg/mL
same,Imipenem MIC,E. coli NDM-1 (T2359); +32 mg/L compound,128 µg/mL
same,Imipenem MIC,E. coli NDM-1 (T2359); +64 mg/L compound,32 µg/mL
same,Imipenem MIC,E. coli NDM-1 (T2359); +128 mg/L compound,8 µg/mL
same,IC50,NDM-1,1 ± 0.4 µM
same,Imipenem MIC,E. coli IMP-1 (T2360); +2 mg/L compound,2 µg/mL
same,Imipenem MIC,E. coli IMP-1 (T2360); +4 mg/L compound,2 µg/mL
same,Imipenem MIC,E. coli IMP-1 (T2360); +8 mg/L compound,2 µg/mL
same,Imipenem MIC,E. coli IMP-1 (T2360); +16 mg/L compound,1 µg/mL
same,Imipenem MIC,E. coli IMP-1 (T2360); +32 mg/L compound,1 µg/mL
same,Imipenem MIC,E. coli IMP-1 (T2360); +64 mg/L compound,0.5 µg/mL
same,Imipenem MIC,E. coli IMP-1 (T2360); +128 mg/L compound,0.5 µg/mL
same,intrinsic antibacterial activity (MIC),[1],no intrinsic antibacterial activity
same,IC50,VIM-1,0.6 µM
CS(=O)(=O)Nc1ccccc1NC(=O)CCS [HIPS5654],IC50 (μM) IMP-7,IMP-7,n.i.
same,IC50,NDM-1,7 ± 0.3 µM
same,IC50,VIM-1,1.9 ± 0.2 µM
COC(=O)c1ccc(NC(=O)CCS)cc1 [HIPS5586],IC50,IMP-7,1.1 ± 0.7 µM
same,IC50,NDM-1,2.8 ± 0.1 µM
same,IC50,VIM-1,0.1 µM
CC(=O)c1ccc(NC(=O)CCS)cc1 [HIPS5188],IC50,IMP-7,5.5 ± 0.1 µM
same,IC50,NDM-1,1.5 ± 0.3 µM
same,IC50,VIM-1,0.4 ± 0.1 µM
